The test system of one data set is androgenetic alopezia. Briefly: Hair growth material on bald spots in androgenetic alopezia (Example VI). In kind it is in vivo. The note with it: for hair growth on previously bald spot: 2% solution in 50% ethanol and 50% Tween 20, rubbed twice daily, 1 mg per cm^2, four weeks; for undesirable side effects: topical, twice daily, 2% solution. As for the experimental part: A 2% solution of nor-ethisterone in 50% ethanol and 50% Tween 20, was utilized for the assistance in hair growth by androgenetic alopezia. The bald spots were rubbed twice daily with a sufficient amount of hair growth material to provide a concentration of 1 mg per cm^2 nor-ethisterone through the skin barrier to the receptor site.

Data set [1] deals with T1, androgen receptor preparations of sebaceous glands (Mesocricetus auratus, UniProt A0A1U7QL32).
T1 construct: [3H]R1881 displacement with excess triamcinolone acetate
T1 sequence (A0A1U7QL32 1-900): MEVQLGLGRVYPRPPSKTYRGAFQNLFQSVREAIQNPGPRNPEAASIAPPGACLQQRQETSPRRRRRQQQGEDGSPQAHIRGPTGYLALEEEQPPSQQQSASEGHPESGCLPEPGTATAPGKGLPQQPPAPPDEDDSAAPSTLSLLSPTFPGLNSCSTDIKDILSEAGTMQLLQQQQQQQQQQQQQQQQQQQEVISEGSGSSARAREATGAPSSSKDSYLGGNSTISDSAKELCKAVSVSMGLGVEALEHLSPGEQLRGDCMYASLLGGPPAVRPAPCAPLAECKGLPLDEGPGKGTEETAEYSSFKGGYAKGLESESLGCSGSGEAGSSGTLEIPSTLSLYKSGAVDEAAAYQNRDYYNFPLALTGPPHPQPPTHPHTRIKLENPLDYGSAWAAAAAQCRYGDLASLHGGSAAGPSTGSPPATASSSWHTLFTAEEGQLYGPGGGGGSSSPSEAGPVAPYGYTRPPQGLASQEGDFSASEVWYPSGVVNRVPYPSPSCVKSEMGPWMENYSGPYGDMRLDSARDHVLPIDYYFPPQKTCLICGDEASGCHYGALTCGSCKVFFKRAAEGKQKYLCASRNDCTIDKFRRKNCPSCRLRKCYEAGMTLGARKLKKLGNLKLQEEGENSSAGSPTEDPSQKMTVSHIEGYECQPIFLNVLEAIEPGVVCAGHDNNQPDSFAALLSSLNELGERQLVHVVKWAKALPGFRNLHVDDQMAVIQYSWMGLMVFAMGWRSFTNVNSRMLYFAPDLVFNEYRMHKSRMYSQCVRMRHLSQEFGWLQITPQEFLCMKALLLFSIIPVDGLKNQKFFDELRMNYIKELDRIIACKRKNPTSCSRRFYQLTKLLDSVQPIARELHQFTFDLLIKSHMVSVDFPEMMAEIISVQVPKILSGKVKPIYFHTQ
Briefly: Competitive binding analysis (displacement of tritium-marked R 1881). The arrangement: species or system Syrian hamster. Conditions: for in vitro affinity at 50% blocking (rank order): displacement of 8 nM tritium-marked R 1881, FIG. 1; for affinity (RBA) for the androgen receptors, in words: displacement of tritium-marked R 1881. The source says:
The standardisation basis in competitive binding analysis is the concentration of the competitor which, can displace 50% of a radioactively labeled reference substance from the receptor. This is conditioned upon the assumption that a relative binding efficiency (RPA) is proof of a high […] in the test material.
The comparison of the in vivo sebum suppression with RBA to the androgen receptor in vitro, should give the key to the answer of whether the substance itself or metabolites thereof, are responsible for the activity.
For the competitive study the web material of five ear shells was gathered. After homogenization in buffer A (10 mM-Tris-HCl-pH 7.4; 1.5 mM EDTA; 5 mM monothiogylcerine) cytosol was obtained as a supernate after ultracentrification at 120×10^3 g for thirty minutes at 4° C. The protein content was adjusted to between 1 to 5 mg/ml with a buffer A.
After a reaction time of 12 hours at 4° C. to achieve equilibrium, the unbound steroid hormones were removed from the reaction mixture by means of dextrancoated activated charcoal suspension (0.5% activated charcoal and 0.05% detran in […] Tris-HCl-buffer; pH 7.4). An aliquot of the supernate after centrifugation was measured in a fluid scintillation counter.

The target in a further data set is T2, gestogen receptors (Ovis aries, UniProt A0ACI6RU96).
T2 sequence (A0ACI6RU96 1-911): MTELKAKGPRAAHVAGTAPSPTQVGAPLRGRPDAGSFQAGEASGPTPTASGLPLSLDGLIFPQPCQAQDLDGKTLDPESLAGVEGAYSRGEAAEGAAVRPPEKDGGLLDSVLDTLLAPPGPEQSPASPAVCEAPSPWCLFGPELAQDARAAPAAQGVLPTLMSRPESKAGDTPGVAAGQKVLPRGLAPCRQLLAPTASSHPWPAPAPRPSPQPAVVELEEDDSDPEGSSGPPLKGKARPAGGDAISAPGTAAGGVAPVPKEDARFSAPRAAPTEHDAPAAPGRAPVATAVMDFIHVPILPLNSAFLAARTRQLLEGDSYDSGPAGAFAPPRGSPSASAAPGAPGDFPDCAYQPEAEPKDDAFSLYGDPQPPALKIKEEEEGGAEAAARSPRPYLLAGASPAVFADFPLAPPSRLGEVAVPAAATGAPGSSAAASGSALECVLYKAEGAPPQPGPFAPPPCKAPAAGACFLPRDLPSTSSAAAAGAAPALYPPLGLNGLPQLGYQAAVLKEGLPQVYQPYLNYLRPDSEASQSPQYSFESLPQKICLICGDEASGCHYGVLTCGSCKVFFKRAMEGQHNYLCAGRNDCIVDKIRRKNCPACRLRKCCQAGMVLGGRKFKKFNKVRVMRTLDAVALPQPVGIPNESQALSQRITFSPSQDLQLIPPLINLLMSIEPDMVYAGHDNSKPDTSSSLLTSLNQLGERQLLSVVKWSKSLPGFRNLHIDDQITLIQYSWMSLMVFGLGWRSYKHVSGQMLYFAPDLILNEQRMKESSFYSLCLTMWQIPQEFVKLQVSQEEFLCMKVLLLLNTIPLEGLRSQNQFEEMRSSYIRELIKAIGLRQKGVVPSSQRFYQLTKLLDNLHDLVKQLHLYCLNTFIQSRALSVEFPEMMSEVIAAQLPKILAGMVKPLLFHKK
The experiment in a line: Binding to gestogen receptors in a sheep uterus (FIG. 2). The source says:
These experiments relating to the competitive binding of different hormanal substances can only describe certain aspects of the binding kinetics, but not all aspects of the pharmacokinetics. It is thus necessary to test the biological effects of steroid hormones by in vivo methods.

Data set [2] deals with skin upper surface lipids. The experiment in a line: Human studies: skin surface lipid content after topical ethisterone lotion. Type of data set: in vivo. As for the experimental part:
A 2% ethisterone formulation was prepared in accordance with Example I. Five male and five female human test subjects took part in the experiment who were treated on their left foreheads with the ethisterone lotion. The subjects applied the lotion twice a day at a concentration of approximately 0.1 mg per cm^2 of ethisterone applied to the receptors.
The lipid content of the upper skin surface of both left and right forehead portions were measured prior to the onset of therepy (0 control), in the second and the fourth weeks of therapy.
Initially the replacement sum was determined. The skin was first cleaned with cigarette paper dipped in acetone and stroked six to eight times over the test area. After sixty minutes the skin lipids were removed from the skin portion of the following manner. Cigarette paper was placed by means of tweezers on the segment to be measured and on the cigarette paper was placed a mass of 280 grams having a surface area of 5 cm^2. Thereafter, the paper was eluted with a mixture comprising 70 parts of acetone and 30 parts of methanol. The thus produced eluate was evaporated to dryness and treated with phosphovanillic acid, thereafter the eluate was evaluated by gas chromatography. Previously, the gas chromatograph had been calibrated with 25 standard skin lipids (mono-di-, triglyceride, cholesterol as well as cholesterol esters, oleic acid esters, having 10 to 18 carbon atoms as well as waxes having up to 28 carbon atoms).
The eluate was also subjected, to thin layer chromomatography. It is noted that generally, speaking the standard substances may be regarded as representative of skin upper surface lipids.

[3] abbreviates: ethisterone in oil-in-water emulsion applied to the skin (summary statement).

For `CCCC1(O)CCC2C3CCC4CC(=O)CC(C)C4(C)C3CCC21C` (stereo not drawn) [17-alpha-PM, 17-alpha-propyl-mesterolone], in the data set on androgenetic alopezia, the “hair growth on previously bald spot” value was “practically the same result is obtained” and the undesirable side effects entry is reported as “no undesirable side effects were noted”. Besides, in data set [1], the “in vitro affinity at 50% blocking (rank order)” value is “R 1881, 17-alpha-PM, ethisterone, CPA, SL and dexamethasone”; the “affinity (RBA) for the androgen receptors, in words” value (“affinity (RBA)” for short) is “substantially higher affinity”.
Take `C[C@@H]1C[C@H]2[C@@H]3CCC4=CC(=O)C=C[C@]4(C)[C@@]3(F)[C@@H](O)C[C@]2(C)[C@@]1(O)C(=O)CO` [dexamethasone]: in data set [1], the “in vitro affinity at 50% blocking (rank order)” value was “R 1881, 17-alpha-PM, ethisterone, CPA, SL and dexamethasone”; the “affinity (RBA)” value is on record as “may be disregarded”.
`CC(=O)[C@H]1CC[C@H]2[C@@H]3CCC4=CC(=O)CC[C@]4(C)[C@H]3CC[C@]12C` [progesterone]: the “binding affinity to gestogen receptors (comparison)” value (“binding affinity” for short) at gestogen receptors is “nor-ethisterone has a higher binding affinity than progesterone and ethisterone”.
Turning to `C#C[C@]1(O)CC[C@H]2[C@@H]3CCC4=CC(=O)CC[C@]4(C)[C@H]3CC[C@@]21C` [ethisterone, 17-alpha-hydroxypregen-4-en-20-yn-3-one], the “lipid content on treated skin upper surface area less than untreated area” value in data set [2] (2% ethisterone lotion twice a day on left forehead, approx. 0.1 mg per cm^2, four week treatment) is on record as 25%. Further, the wax content reduced in data set [2] (2% ethisterone lotion twice a day on left forehead, four week treatment) stood at 75%. For the same molecule, in data set [2] (setting [3]), the “reduction of lipids which comprise waxy substances (C20 to C28)” value came out at 75 % by weight and the “reduction of total lipid content of the skin from the initial value” was “about 25%”. In addition, on gestogen receptors, the “binding affinity” value was “nor-ethisterone has a higher binding affinity than progesterone and ethisterone”. Further, in data set [1], the “in vitro affinity at 50% blocking (rank order)” value is “R 1881, 17-alpha-PM, ethisterone, CPA, SL and dexamethasone”; the “affinity (RBA)” value was “satisfactory middle place between 17-alpha-PM and synthetic R 1881”.
For `C#C[C@]1(O)CC[C@H]2[C@@H]3CCC4=CC(=O)CC[C@@H]4[C@H]3CC[C@@]21C` [nor-ethisterone, 17-hyroxy-19-norpregn-4-en-20-yn-3-one], the “binding affinity” value on gestogen receptors was “higher binding affinity than progesterone and ethisterone”. Besides, in the data set on androgenetic alopezia, the “hair growth on previously bald spot” value is given as “a hair fuzz is noted on the previously bald spot” and the undesirable side effects entry is listed as “no undesirable side effects were noted”.

Source of the values: patent US5094857A, “Treatment of acne or androgenetic alopecia by topical administration of ethisterone” (priority 1987, dated 1992).
